Where two headings read alike, the source gives them in different places.
What was measured:
[1] = system: isolated uterus of estrogenized rats; assay: Effect on isolated uterus of estrogenized rats (non-cumulative concentration-response curves); design: species or system Wistar rats; details: for Area (g of tension/2 min): average
Procedure: Concentration-response curves were carried out on isolated uterus of estrogenized rats. Female Wistar rats weighing 250g to 300g were employed. The animals were pretreated with 0.1 mg/kg of estradiol, subcutaneously, 24 h before the experiment. The whole uterus was dissected and excised and a portion of 1 cm of one horn was incubated in a 10 ml organ bath, at 30°C, bubbled with a mixture of 95 % O2 plus 5 % CO2. The nutrient solution was De Jalon solution described in the International Pharmacopea II^nd Ed. and containing 4x10^-7 M sodium diclofenac. The organ was left to stabilize in the solution for one hour. No spontaneous contractions were detected under these experimental conditions. To carry out the concentration-response curves, volumes of solutions of either natural prostaglandins or B-407 were added in order to obtain concentrations in the organ bath between 10^-10 M and 3x10^-6 M. After 2 minutes, the organ was washed three times during a 15 minutes time period before adding the next test solution. In this way the concentration-response curves obtained were not cumulative ["The rat uterus preparation" in "Pharmacological Experiments on Isolated Preparations". E. and S. Livingstone Ltd. Edinburgh and London (1968), p. 92].
Recording of the contractions of the isolated uterus were on a Berger polygraph with a FT03C transducer. The frequency and magnitude of the responses were globally evaluated by calculating the total area recorded at fixed time periods as will be further explained.
The frequency and magnitude of the responses were globally evaluated by calculating the total area recorded at a fixed time period as will be further explained. The areas under the curve of the recording paper, over 15 minutes periods, were cut and weighed both in the concentration-response curves and in the potentiating experiments.
The calibration was made by weighing a piece of paper which corresponded to a tension of 1 g at the working sensitivity along 2 minutes. Therefore, a relationship of area expressed in g/2 min was obtained and then the weights of the areas of the responses were transformed to unities of area. The results were expressed as the mean ± the standard error of the areas obtained. The statistical evaluation of the differences was carried out either by ANOVA or by Student's-t-test, as appropriate.

[2] = system: Swiss female mice; assay: Barbiturate sleeping time in mice; type: in vivo; details: 100 µg/kg,ip, 15 min before pentobarbital sodium 30 mg/kg i.p., n= 12
Procedure: The effect of B-407 on the time of induction and time of duration of the barbiturate sleeping time was evaluated by determining the time of loss and recovery of the righting reflex. This was carried out in Swiss female mice weighing 20 g to 25 g.
Two groups of 12 mice each were used. One group was treated with B-407 (100 µg/kg, i.p.). Fifteen minutes later, pentobarbital sodium (30 mg/kg, i.p.) was administered. The time of onset (the loss of the righting reflex) and of duration (the elapsed time from the loss of the righting reflex up to its recovery from the barbiturate-induced sleeping) were determined. Full recovery of the righting reflex was assumed when the animal, placed on its back, could recover its normal position at least 3 times during one minute. The control mice group followed the same protocol, but received saline solution instead B-407. The results were expressed as the average ± standard error of each group and the statistical significance of the differences were evaluated by means of the Student's-t-test.

[3] = system: Swiss male mice; assay: Motor activity in mice (rota-rod); details: 100 µg/kg, i.p., 15 min prior to the test; vehicle 0/10
[4] = system: Beagle dogs; assay: Volume and acidity of histamine stimulated gastric secretion in dogs (gastric fistula); type: in vivo
Procedure: Healthy adult Beagle dogs weighing 10 kg to 13 kg were used.
The basal response of each dog to histamine, as represented by volume of gastric secretion and acid concentration, was carried out six times. For this purpose the dogs were placed in a Pavlov support and plastic bottles were connected to a Thomas type gastric fistula after cleaning it when necessary.
Saline i.v. infusion was started by means of a Butterfly G 21 (Abbott) needle connected to a 500 ml bottle of sterile pyrogen free isotonic saline solution through an inert plastic cannula. The solution dripping was adjusted to 1 ml/min.
The volume of gastric secretion obtained from fifteen minutes collection periods, expressed as ml/15 min, was determined. Aliquots of 5 ml were kept in the freezer to perform acid titration on the next day. The first three collection periods were considered as the actual basal gastric secretion for each dog in the absence of any drug. Then the bottle of saline was changed for a solution of histamine. 2HCl at a concentration of […] in saline. The dripping was adjusted to 20 drops per minute (984 µg histamine/hour) After the plateau of augmented gastric secretion was reached, B-407 was administered.
Acid concentration, expressed as mEq H+/l was determined by titration with sodium hydroxide.

[5] = Canis lupus familiaris, iv, read-out: VOLUME % Inhib.

In the case of CCCCC(C)(O)C/C=C/[C@H]1[C@H](O)CC(=O)[C@@H]1CCCC/C=C/C(=O)OC (mixture of isomers) [B-407, trans-Δ^2-15-deoxy-16-hydroxy-16-methyl PGE1 methyl ester], the “Area (g of tension/2 min)” value ([1]; 1x10^-6 M, n=6) is reported as 1,13 g of tension/ 2 min, the “Area (g of tension/2 min)” value ([1]; 1x10^-7 M, n=6) is reported as 0,31 g of tension/ 2 min and the “Area (g of tension/2 min)” value ([1]; 1x10^-8 M, n=6) is reported as 0,20 g of tension/ 2 min. For the same compound, the “Area (g of tension/2 min)” value ([1]; 1x10^-9 M, n=6) was 0,12 g of tension/ 2 min, the “Area (g of tension/2 min)” value ([1]; 1x10^-10 M, n=6) was 0,14 g of tension/ 2 min and the “Area (g of tension/2 min)” value ([1]; 3x10^-6 M, n=5) was 0,67 g of tension/ 2 min. For the same compound, the “times less potent than PGE1 on rat uterine contractility in vitro” value ([1]; PGE1 results are not shown) was “about 4 times”, the Induction time ([2]; control 4,52 ± 0,22, p < 0,02) was 3,75 ± 0,19 min and the Sleeping time ([2]; control 27,8 ± 3,10, n.s.) was 29,7 ± 2,91 min. The “Fraction (animals fallen before 300 sec/total number of animals)” value [3] was 1/10, the inhibition at 0.003 mg/kg ([4]; Canis lupus familiaris, iv, read-out: ACIDITY % Inhib) was 59.7% and the inhibition at 0.001 mg/kg [4, 5] was 15.2%. The inhibition at 0.003 mg/kg [4, 5] was 93.7%, the “ACIDITY % Inhib” value ([4]; i.g. 10 µg/kg) was 42,5% and the “VOLUME % Inhib.” value ([4]; i.g. 10 µg/kg) was 24,3%. For the same compound, the “VOLUME Max.eff. B-407” value ([4]; i.g. 10 µg/kg, histamine plateau 42,0±3,6) was 31,8±6,2 ml/15min, the “ACIDITY Max.Eff. B-407” value ([4]; i.g. 10 µg/kg, histamine plateau 122,4±9,7) was 70,4±11,8 mEq.H^+/l and the “ACIDITY % Inhib” value ([4]; i.g. 30 µg/kg) was 31,8%. For the same compound, the “VOLUME % Inhib.” value ([4]; i.g. 30 µg/kg) was 36,3%, the “VOLUME Max.eff. B-407” value ([4]; i.g. 30 µg/kg, histamine plateau 38,3±2,6) was 24,4±3,1 ml/15min and the “ACIDITY Max.Eff. B-407” value ([4]; i.g. 30 µg/kg, histamine plateau 143,4±3,2) was 97,8±13,2 mEq.H^+/l. The “VOLUME Max.eff. B-407” value ([4]; i.v. 1 µg/kg, histamine plateau 39,5±3,4) was 33,5±3,6 ml/15min, the “VOLUME Max.eff. B-407” value ([4]; i.v. 3 µg/kg, histamine plateau 43,2±4,6) was 2,7±1,3 ml/15min and the “ACIDITY Max.Eff. B-407” value ([4]; i.v. 3 µg/kg, histamine plateau 145,3±3,0) was 58,5±16,0 mEq.H^+/l. The “VOLUME % Inhib.” value ([4]; i.vag 10 µg/kg (n=3)) was 100,0%, the “VOLUME Max.eff. B-407” value ([4]; i.vag 10 µg/kg (n=3), histamine plateau 43,0±2,0) was 0,0 ml/15min and the “ACIDITY % Inhib” value ([4]; i.vag 30 µg/kg (n=2)) was 67,3%. For the same compound, the “VOLUME % Inhib.” value ([4]; i.vag 30 µg/kg (n=2)) was 93,8%, the “VOLUME Max.eff. B-407” value ([4]; i.vag 30 µg/kg (n=2), histamine plateau 38,5±8,5) was 2,4±1,7 ml/15min and the “ACIDITY Max.Eff. B-407” value ([4]; i.vag 30 µg/kg (n=2), histamine plateau 118,9±4,3) was 38,9±19,9 mEq.H^+/l. For the same compound, the “ACIDITY % Inhib” value ([4]; i.vag. 1 µg/kg) was 24,4%, the “VOLUME % Inhib.” value ([4]; i.vag. 1 µg/kg) was 30,5% and the “VOLUME Max.eff. B-407” value ([4]; i.vag. 1 µg/kg, histamine plateau 50,8±2,4) was 35,3±5,3 ml/15min. The “ACIDITY Max.Eff. B-407” value ([4]; i.vag. 1 µg/kg, histamine plateau 134,2±6,4) was 101,4±13,3 mEq.H^+/l, the “ACIDITY % Inhib” value ([4]; i.vag. 3 µg/kg) was 71,5% and the “VOLUME % Inhib.” value ([4]; i.vag. 3 µg/kg) was 98,4%. For the same compound, the “VOLUME Max.eff. B-407” value ([4]; i.vag. 3 µg/kg, histamine plateau 49,1±2,5) was 0,8±0,4 ml/15min and the “ACIDITY Max.Eff. B-407” value ([4]; i.vag. 3 µg/kg, histamine plateau 132,6±8,7) was 37,8±12,7 mEq.H^+/l.

— patent EP0574185B1, “PGE1 analogs” (NEWPHARMA INTERNATIONAL CORPORATION, priority 1992, dated 1993)
